In ChEMBL document CHEMBL1955766, “Structure guided development of novel thymidine mimetics targeting Pseudomonas aeruginosa thymidylate kinase: from hit to lead generation” (J Med Chem, 2012):
Values after ≈ are worked out from the molar mass of the structure shown.

Test system: Mycobacterium tuberculosis variant bovis
Assay: Antibacterial activity against Mycobacterium bovis
Format: functional

## Cc1cn([C@@H]2C[C@H](O)[C@@H](CNC(=S)Nc3ccc(Cl)c(Cl)c3)O2)c(=O)[nH]c1=O
  MIC: 25 µg/mL (≈ 56.1 µM)
